From patent EP1862454A1, “Novel compounds, isomer thereof or pharmaceutically acceptable salts thereof as vanilloid receptor antagonist; and a pharmaceutical composition containing the same” (Amorepacific Corporation, priority 2006, dated 2007)

Legend:
Male ICR mice = test: Analgesic activity test: mouse writhing test induced with phenyl-p-quinone; format: in vivo; details: writhes counted vs control group
Method: 2. Analgesic activity test: Mouse writhing test by inducing with phenyl-p-quinone
Male ICR mice (mean body weight 25g) were maintained in a controlled lighting environment (12 h on/ 12 h off) for experiment. Animals received an intraperitoneal injection of 0.3ml of the chemical irritant phenyl-p-quinone (dissolved in saline containing 5% ethanol to be a dose of 4.5mg/kg) and 6 mins later, the number of abdominal constrictions was counted in the subsequent 6 mins period. Animals (10 animals/group) received 0.2ml of test compounds solution in vehicle of ethanol/Tween 80/saline (10/10/80) intraperitoneally 30 min before the injection of phenyl-p-quinone. A reduction in the number of writhes responding to the test drug compound relative to the number responding in saline control group was considered to be indicative of an analgesic effect. Analgesic effect was calculated by % inhibition equation (% inhibition=(C-T)/C x 100), wherein C and T represent the number of writhes in control and compound-treated group, respectively (Table 2).

vanilloid receptor = molecular target: T1, vanilloid receptor (Rattus norvegicus, UniProt O35433); test: 45Ca influx test in primary culture of neonatal rat DRG neurons, inhibition of the capsaicin response; format: cell-based, SD rats; details: DRG nerve cells; capsaicin 0.5 µM; 45Ca 10 µCi/ml; 10 mins at room temperature; read-out: Antagonist Calcium Uptake Test (IC50)
T1 construct: DRG nerve cells from the primary culture of 2 days were equilibrated; endogenous in cells; host or cells: primary culture of dorsal root ganglion neurons from neonatal SD rats
T1 sequence (O35433 whole entry): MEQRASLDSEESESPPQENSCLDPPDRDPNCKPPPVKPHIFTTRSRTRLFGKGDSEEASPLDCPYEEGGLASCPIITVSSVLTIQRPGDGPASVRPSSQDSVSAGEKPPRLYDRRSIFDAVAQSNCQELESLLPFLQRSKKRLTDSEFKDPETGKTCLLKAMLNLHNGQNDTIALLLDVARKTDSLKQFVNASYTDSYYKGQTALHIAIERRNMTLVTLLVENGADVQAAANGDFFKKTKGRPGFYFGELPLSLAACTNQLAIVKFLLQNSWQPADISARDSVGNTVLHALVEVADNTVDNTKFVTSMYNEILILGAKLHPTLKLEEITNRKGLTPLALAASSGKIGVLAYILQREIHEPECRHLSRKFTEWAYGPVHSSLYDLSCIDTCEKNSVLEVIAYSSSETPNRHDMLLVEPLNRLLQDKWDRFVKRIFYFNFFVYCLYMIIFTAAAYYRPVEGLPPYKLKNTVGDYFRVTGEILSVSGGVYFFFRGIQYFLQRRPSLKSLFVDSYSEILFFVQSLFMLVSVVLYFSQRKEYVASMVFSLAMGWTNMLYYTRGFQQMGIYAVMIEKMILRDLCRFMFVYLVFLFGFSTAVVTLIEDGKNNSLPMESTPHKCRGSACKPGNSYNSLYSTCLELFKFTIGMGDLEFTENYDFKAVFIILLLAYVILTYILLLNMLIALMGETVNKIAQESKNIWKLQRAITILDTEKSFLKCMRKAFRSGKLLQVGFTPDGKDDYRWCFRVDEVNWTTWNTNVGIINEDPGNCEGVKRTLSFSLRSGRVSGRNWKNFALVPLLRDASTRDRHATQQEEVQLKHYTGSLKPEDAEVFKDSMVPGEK
Method: 1) Separation of spinal dorsal root ganglia (DRG) in newborn rats and primary culture thereof
Neonatal (2-3 day old or younger than 2-3 day old) SD rats were put in ice for 5 minutes to anesthetize and disinfected with 70% ethanol. DRG of all part of spinal cord were dissected (Wood et al., 1988, J. Neurosci. 8, pp3208-3220) and collected in DME/F12 medium to which 1.2g/l sodium bicarbonate and 50mg/l gentamycin were added. The DRG were incubated sequentially at 37°C for 30 min in 200 U/ml collagenase and 2.5mg/ml trypsin, separately. The ganglia were washed twice with DME/F12 medium supplemented with 10% horse serum, triturated through a fire-polished Pasteur pipette, filtered through Nitex 80 membrane to obtain single cell suspension and the suspension was washed once more. This was subjected to centrifugation, then resuspended in cell culture medium at certain level of cell density. As the cell culture medium, DME/F12 medium supplemented with 10% horse serum was diluted with identical medium conditioned by C6 glioma cells 2 days on a confluent monolayer (1:1), and NGF (Nerve Growth Factor) was added to adjust 200ng/ml as final concentration. After the cells were grown for 2 days in medium where cytosine arabinoside (Ara-C, 100 µM) was added to kill dividing nonneuronal cells, medium was changed to one without Ara-C. The resuspended cells were plated at a density of 1500-2000 neurons/well onto Terasaki plates previously coated with 10 µg/ml poly-D-ornithine.
2) ^45 Ca influx experiments
DRG nerve cells from the primary culture of 2 days were equilibrated by washing 4 times with HEPES (10mM, pH 7.4)-buffered Ca ^2+, Mg^2+-free HBSS (H-HBSS). The solution in each well was removed from the individual well. Medium containing the test compound plus capsaicin (final concentration 0.5 µM) and ^45Ca (final concentration 10 µCi/ml) in H-HBSS was added to each well and incubated at room temperature for 10 mins. Terasaki plates were washed five times with H-HBSS and dried at room temperature. To each well, 0.3% SDS (10 µl) was added to elute ^45Ca. After the addition of scintillation cocktail into each well, the amount of ^45Ca influx into neuron was measured by counting radioactivity. Antagonistic activities of test compounds against vanilloid receptor were calculated as percent of the inhibition of maximal response of capsaicin at a concentration of 0.5 µM. […]

SMILES	Analgesic effect (%Inhibition) (Male ICR mice; Dose 0.3 mg/kg intraperitoneally 30 min before phenyl-p-quinone (4.5mg/kg)) [%]	IC50 (vanilloid receptor) [µM]	Analgesic effect (%Inhibition) (Male ICR mice; Dose 1 mg/kg intraperitoneally 30 min before phenyl-p-quinone (4.5mg/kg)) [%]
C=Cc1cc(CNC(=S)NCc2ccc(C(C)(C)C)cc2)ccc1NS(C)(=O)=O [Example 1, N-{4-[3-(4-t-butylbenzyl)thioureido-methyl]-2-vinyl-phenyl} methanesulfonamide]	93	0.054	
C=Cc1cc(CNC(=S)NCc2ccc(C(C)(C)C)cc2)cc(C(F)(F)F)c1NS(C)(=O)=O [Example 2, N-{4-[3-(4-t-butylbenzyl)thioureido-methyl]-2-trifluoromethyl-6-vinyl-phenyl}methanesulfonamide]		0.33	
C=Cc1cc(CNC(=S)NCc2ccc(C(C)(C)C)cc2)cc(F)c1NS(C)(=O)=O [Example 3, N-{4-[3-(4-t-butylbenzyl)thioureido-methyl]-2-fluoro-6-vinyl-phenyl}methanesulfonamide]		0.035	57
C=Cc1cc(CNC(=S)NCc2ccc(C(C)(C)C)cc2)cc(Cl)c1NS(C)(=O)=O [Example 4, N-{4-[3-(4-t-butylbenzyl)thioureido-methyl]-2-chloro-6-vinyl-phenyl}methanesulfonamide]		0.093	
C=Cc1cc(CNC(=S)NCc2ccc(C(C)(C)C)cc2)cc(C)c1NS(C)(=O)=O [Example 5, N-{4-[3-(4-t-butylbenzyl)thioureido-methyl]-2-methyl-6-vinyl-phenyl}methanesulfonamide]		0.19	
C=Cc1cc(C(C)NC(=S)NCc2ccc(C(C)(C)C)cc2)cc(F)c1NS(C)(=O)=O (centres unmarked) [Example 6, N-(4-{1-[3-(4-t-butylbenzyl)thioureido]ethyl}-2-fluoro-6-vinyl-phenyl) methanesulfonamide]		0.12	
